System: TCR17B
Experiment: I-Ag7 SABR-II library screen, enrichment score
Format: cell-based, mouse
Conditions: TCR_Mean minus PREDICTED_TCR (from LIB_Mean, SLOPE 0.911347, INTERCEPT 2.17553e-5), PZ52
Excerpt: (§1) We then asked whether SABR-IIs could be used to present a library of epitopes for CD4^+ T cell antigen discovery. To that end, we constructed a SABR-II library to present epitopes derived from pancreatic islets in I-Ag7 by curating a list of 4,075 published epitopes from the Immune Epitope Database (iedb.org)[50] and a study by Wan et al.[51] (Supplementary Table 1). Of note, this defined library consisted of unmodified epitopes from endogenous proteins, synthetic mimotopes, deamidated epitopes and hybrid insulin peptides (HIPs) that arise from post-translational fusion and are not genetically encoded in vivo[52],[53]. The epitope library was inserted into the I-Ag7 SABR-II backbone through pooled oligonucleotide synthesis, amplification and ligation-free cloning (Extended Data Fig. 3a). The I-Ag7 SABR-II-library was then expressed in NFAT–GFP Jurkat cells. We confirmed that after sequencing, the library accounted for a mean of 708 reads per epitope (Extended Data Fig. 3b). As a proof of concept, we performed co-incubation assays with Jurkat cells expressing the BDC2.5 TCR and sorted the top 1–2% of GFP^+CD69^+ cells at a rate of ~20 min per replicate with three replicates per TCR. We extracted the genomic DNA from sorted cells, amplified the SABR portion of the integrated proviruses and subjected the amplicons to Illumina sequencing (Extended Data Fig. 3c,d). The 1–2% sort gate represents >50-fold enrichment of cognate epitopes with minimal loss of signal (Extended Data Fig. 3e–h). Sequence reads were aligned to the I-Ag7 SABR-II backbone and the corresponding epitopes were scored based on their read counts. For each TCR under investigation, an enrichment score (ES) was determined for all the epitopes in a library. In each experiment, three replicates of a sort with TCR-expressing Jurkat cells were performed and reads were counted post-sequencing. In addition, three replicates of the unsorted library were also sequenced. A linear regression model was built using the unsorted library counts and used to determine the expected abundance of each epitope in the library. The ES was calculated based on the difference between the measured and the expected abundance of each epitope on a per-TCR basis (Fig. 1e). Based on ES values, two quantitative thresholds were used to determine putative cognate epitopes of a given TCR. A high-confidence zone containing clear outliers with a high ES and a low-confidence zone containing weak outliers with a moderately high ES were determined (Fig. 1e). This two-tiered strategy was used to call putative hits from screens. All the top-scoring epitopes for the BDC2.5 TCR were known BDC2.5 ligands containing the WXRM(D/E) motif (Fig. 1f,g, enriched ligands in red), a well-characterized trait of the BDC2.5 TCR[43],[54]–[56]. Across several independent experiments there was limited variation in ES values for the same TCRs and several epitopes fell into high- or low-confidence zones consistently (Extended Data Fig. 4a). Using a different TCR that was isolated from NOD mice, 4-8Ins[57], which recognized the InsB9:23 epitope ([…]), we observed a similar pattern of ES for cognate epitopes (Extended Data Fig. 4b).
(§2) We performed systematic screening of the cloned TCRs against the I-Ag7 SABR-II library. Several TCRs along with a positive control (such as BDC2.5 or 4-8Ins) were screened individually against the library for each sort (Extended Data Fig. 6a and Supplementary Table 4). High- and low-confidence ES zones for each screened TCR were defined by the ES values of the control TCR’s cognate epitopes. For all putative cognate epitopes, single SABR-IIs were constructed, expressed in NFAT–GFP Jurkat cells and used for co-incubation with the corresponding TCRs. Co-incubation assays that yielded a GFP signal higher than that obtained in assays with no TCR were determined to be positive and the epitopes deemed true cognate ligands (Extended Data Fig. 6b,c). […]

Sequence	Enrichment score
AAVEEGIVAGGGVTLL	-0.0001643
AEKVRNLPAGHGLNAQ	-3.983e-5
AGGVAVIKAGAATEV	5.455e-5
AKAAVEEGIVAGGGV	0.0004148
ALVREGLRNVAAGANP	-2.185e-5

System: TCR1
Experiment: I-Ag7 SABR-II library screen, enrichment score
Format: cell-based, mouse
Conditions: sheet TCR1-PZ44; ES = TCRObserved - TCRPredicted; TCRPredicted = LIBObserved x SLOPE + INTERCEPT; SLOPE 0.917532, INTERCEPT 2.02377e-5
Excerpt: as §1, §2

Sequence	Enrichment score
AAVEEGIVAGGGVTLL	0.0002622
AEKVRNLPAGHGLNAQ	9.239e-5
AGGVAVIKAGAATEV	3.28e-9
AKAAVEEGIVAGGGV	-8.988e-5
ALVREGLRNVAAGANP	-2.024e-5

System: TCR18
Experiment: I-Ag7 SABR-II library screen, enrichment score
Format: cell-based, mouse
Conditions: I-Ag7 library; one biological experiment
Excerpt: as §1, §2

Sequence	Enrichment score
AAVEEGIVAGGGVTLL	-8.9534e-5
AEKVRNLPAGHGLNAQ	0.0001149
AGGVAVIKAGAATEV	-7.134e-5
AKAAVEEGIVAGGGV	-0.0001034
ALVREGLRNVAAGANP	-1.951e-5

Same assay, conditions: TCR18; TCR_Mean minus PREDICTED_TCR (from LIB_Mean, SLOPE 0.92089, INTERCEPT 1.94136e-5); PZ52

Sequence	Enrichment score
AAVEEGIVAGGGVTLL	-8.9534e-5
AEKVRNLPAGHGLNAQ	0.0001149
AGGVAVIKAGAATEV	-7.134e-5
AKAAVEEGIVAGGGV	-0.0001034
ALVREGLRNVAAGANP	-1.951e-5

System: TCR11
Experiment: I-Ag7 SABR-II library screen, enrichment score
Format: cell-based, mouse
Conditions: TCR11; TCR_Mean minus PREDICTED_TCR (from LIB_Mean, SLOPE 0.869084, INTERCEPT 3.21267e-5); PZ51
Excerpt: as §1, §2

Sequence	Enrichment score
AAVEEGIVAGGGVTLL	9.192e-5
AEKVRNLPAGHGLNAQ	0.0002492
AGGVAVIKAGAATEV	-2.692e-5
AKAAVEEGIVAGGGV	0.0001401
ALVREGLRNVAAGANP	-3.213e-5

Same assay, conditions: low-confidence hit

Sequence	recognition by TCR (screen hit, validated by single SABR-II co-incubation)
SHLVEALYLVCGERG	confirmation of reactivity

System: TCR4
Experiment: I-Ag7 SABR-II library screen, enrichment score
Format: cell-based, mouse
Conditions: high-confidence zone
Excerpt: as §1, §2

Sequence	recognition by TCR (screen hit, validated by single SABR-II co-incubation)
LQTLALNAARDP	recognized

Same assay, conditions: sheet TCR4-PZ44; ES = TCRObserved - TCRPredicted; TCRPredicted = LIBObserved x SLOPE + INTERCEPT; SLOPE 0.903208, INTERCEPT 2.37527e-5

Sequence	Enrichment score
AAVEEGIVAGGGVTLL	3.881e-5
AEKVRNLPAGHGLNAQ	-5.549e-7
AGGVAVIKAGAATEV	2.046e-5
AKAAVEEGIVAGGGV	-0.0001441
ALVREGLRNVAAGANP	-2.375e-5

System: TCR37
Experiment: I-Ag7 SABR-II library screen, enrichment score
Format: cell-based, mouse
Conditions: TCR_Mean minus PREDICTED_TCR (slope 0.904637, intercept 2.34021e-5 on LIB_Mean), TCR 37, run PZ57
Excerpt: as §1, §2

Sequence	Enrichment score
AAVEEGIVAGGGVTLL	-4.879e-5
AEKVRNLPAGHGLNAQ	0.0002899
AGGVAVIKAGAATEV	-0.0001031
AKAAVEEGIVAGGGV	-6.503e-5
ALVREGLRNVAAGANP	-2.34e-5

Same assay, conditions: high-confidence zone

Sequence	recognition by TCR (screen hit, validated by single SABR-II co-incubation)
SHLVEALYLVCGERG	recognized

System: TCR15
Experiment: I-Ag7 SABR-II library screen, enrichment score
Format: cell-based, mouse
Conditions: TCR15; TCR_Mean minus PREDICTED_TCR (from LIB_Mean, SLOPE 0.918454, INTERCEPT 2.00113e-5); PZ37
Excerpt: as §1, §2

Sequence	Enrichment score
AAVEEGIVAGGGVTLL	-0.000165
AEKVRNLPAGHGLNAQ	0.000168
AGGVAVIKAGAATEV	2.956e-5
AKAAVEEGIVAGGGV	1.733e-5
ALVREGLRNVAAGANP	-2.061e-5

Same assay, conditions: high-confidence zone

Sequence	recognition by TCR (screen hit, validated by single SABR-II co-incubation)
LQTLALNAARDP	recognized

System: TCR24
Experiment: I-Ag7 SABR-II library screen, enrichment score
Format: cell-based, mouse
Conditions: TCR_Mean minus PREDICTED_TCR (slope 0.96363, intercept 8.9252e-6 on LIB_Mean), TCR 24, run PZ98
Excerpt: as §1, §2

Sequence	Enrichment score
AAVEEGIVAGGGVTLL	0.0001615
AEKVRNLPAGHGLNAQ	0.0001713
AGGVAVIKAGAATEV	-1.094e-5
AKAAVEEGIVAGGGV	2.968e-5
ALVREGLRNVAAGANP	-8.9252e-6

Same assay, conditions: high-confidence zone

Sequence	recognition by TCR (screen hit, validated by single SABR-II co-incubation)
SHLVEALYLVCGERG	recognized

System: TCR30
Experiment: I-Ag7 SABR-II library screen, enrichment score
Format: cell-based, mouse
Conditions: TCR_Mean minus PREDICTED_TCR (slope 0.934363, intercept 1.61073e-5 on LIB_Mean), TCR 30, run PZ98
Excerpt: as §1, §2

Sequence	Enrichment score
AAVEEGIVAGGGVTLL	-2.605e-6
AEKVRNLPAGHGLNAQ	0.0001445
AGGVAVIKAGAATEV	-2.42e-5
AKAAVEEGIVAGGGV	8.616e-5
ALVREGLRNVAAGANP	-1.611e-5

Same assay, conditions: low-confidence hit

Sequence	recognition by TCR (screen hit, validated by single SABR-II co-incubation)
SHLVEALYLVCGERG	confirmation of reactivity

System: TCR38
Experiment: I-Ag7 SABR-II library screen, enrichment score
Format: cell-based, mouse
Conditions: I-Ag7 SABR-II library PZ101, CD4 TCR 38; TCR_Mean of 3 replicates minus PREDICTED_TCR (slope 0.968274, intercept 7.78554e-6)
Excerpt: as §1, §2

Sequence	Enrichment score
AAVEEGIVAGGGVTLL	0.0001517
AEKVRNLPAGHGLNAQ	-3.923e-5
AGGVAVIKAGAATEV	4.352e-5
AKAAVEEGIVAGGGV	-6.1876e-5
ALVREGLRNVAAGANP	-7.786e-6

System: TCR40
Experiment: I-Ag7 SABR-II library screen, enrichment score
Format: cell-based, mouse
Conditions: I-Ag7 SABR-II library PZ101, CD4 TCR 40; TCR_Mean of 3 replicates minus PREDICTED_TCR (slope 0.959981, intercept 9.82052e-6)
Excerpt: as §1, §2

Sequence	Enrichment score
AAVEEGIVAGGGVTLL	6.713e-5
AEKVRNLPAGHGLNAQ	-9.416e-5
AGGVAVIKAGAATEV	8.867e-6
AKAAVEEGIVAGGGV	-1.429e-5
ALVREGLRNVAAGANP	-9.821e-6

System: TCR2
Experiment: I-Ag7 SABR-II library screen, enrichment score
Format: cell-based, mouse
Conditions: sheet TCR2-PZ44; ES = TCRObserved - TCRPredicted; TCRPredicted = LIBObserved x SLOPE + INTERCEPT; SLOPE 0.908797, INTERCEPT 2.23811e-5
Excerpt: as §1, §2

Sequence	Enrichment score
AAVEEGIVAGGGVTLL	9.944e-5
AEKVRNLPAGHGLNAQ	0.0001311
AGGVAVIKAGAATEV	-1.7e-5
AKAAVEEGIVAGGGV	-6.466e-5
ALVREGLRNVAAGANP	-2.238e-5
